Here are results for six compounds from US20160244486A1, “AB Modulating Peptides” (ALZHYME PTY LTD, priority 2013, published 2016).

Square brackets hold non-standard residues; d marks the D form. Ends that are not written are not given here. Peptide text beside a SMILES is read from it. ξ: configuration not given here. ξT = CC(O)C(N)C(=O)O

The nature of data set [1]: In vitro peptide stability in 10% rat brain homogenate, RP-HPLC quantification. It is filed as in vitro ADME. Particulars: 37° C. The protocol:
Peptides were prepared as a 1 mM solution in phosphate-buffered saline. 20 μl of the peptide solution was diluted in 10% rat brain homogenate (in 1× phosphate-buffered saline and 0.5% Triton X-100).
The solution was incubated at 37° C. for different times, and the reaction was stopped by adding the Complete mixture of protease inhibitors (Roche Molecular Biochemicals, Mannheim, Germany). For ANA5 and RI-ANA5, the bulk of the brain proteins (but not the peptides) were precipitated in cold methanol (1:4 (v/v) mixture/MeOH) for 1 hr at −20° C. The precipitated proteins were pelleted by centrifugation at 10,000 g for 10 min at 4° C. The supernatant containing the peptide was concentrated five times under vacuum and separated by RP-HPLC. Due to recovery issues with the longer ANA1 and RI-ANA1 peptides, samples were instead lyophilized and then reconstituted in a TFA solution, prior to separation by RP-HPLC.
The area of the peak (UV absorbance at 205 nm) corresponding to the intact peptide was measured and compared with an equivalent sample incubated in phosphate-buffered saline.
(iii) In vitro assay of peptide stability—Peptides were prepared as a 1 mM solution in PBS. 20 μl of the peptide solution was diluted in 10% rat brain homogenate (in PBS+0.5% Triton X-100). The solution was incubated at 37° C. for different times, and the reaction was stopped by adding the Complete mixture of protease inhibitors (Roche Molecular Biochemicals, Mannheim, Germany). For ANA5 and 9M S.A., the bulk of the brain proteins (but not the peptides) were precipitated in cold methanol (1:4 (v/v) mixture/methanol) for 1 h at −20° C. The precipitated proteins were pelleted by centrifugation (10.000 g, 10 min, 4° C.). The supernatant containing the peptide was concentrated five times under vacuum and separated by reversed-phase HPLC (RP-HPLC). Due to recovery issues with the longer ANA1 and RI-ANA1 peptides, samples were instead lyophilized, extracted in TFA, centrifuged to remove insoluble material and separated by RP-HPLC. The area of the peak (UV absorbance at 205 nm) corresponding to the intact peptide was measured and compared with an equivalent sample incubated in PBS.
Peptides were prepared as 1 mM solutions in PBS and diluted in 10% rat brain homogenate. Solutions were incubated at 37° C. for different times, and the reactions were stopped by addition of protease inhibitors. Samples were processed as described herein in the General Materials/Methods, separated by RP-HPLC and the level of intact peptide was determined at each time point.

Data set [2] deals with oligomeric Aβ42 (human synthetic Aβ42, pre-formed oligomers) (human) (UniProt P05067). The data set can be described thus: SPR (Biacore 3000), 15M S.A. immobilised on CM5, oAβ42 injected; 1:1 binding model with drifting baseline; overall estimate across the oligomer mixture.
In a further data set the test system is amyloid plaques. The data set can be described thus: Ex vivo staining of amyloid plaques in brain tissue sections. Conditions: brain tissue from 8 month old 5× FAD AD model mice. On the procedure:
(x) Immunohistochemistry—Brains were obtained from 8 month old 5× FAD AD model mice Oakley, F-F et al (2006) or age-matched non-transgenic controls and post-fixed and embedded in the freezing medium as described in Drummond, E. S. et al (2013). Serial sagittal cryosections were cut at a thickness of 10 μm. Positive control staining for amyloid was performed using Thioflavin S (ThioS) as described in Youmans, K. L, et al (2012). After the removal of the freezing medium by serial changes of TBS pH 7.4, the slide was incubated for 1 h at room temperature in blocking buffer (10% goat serum in TBS). The slides were then stained with 1 μM TMR-labelled 15M S.A. peptide in 2% goat-serum-PBS for 2 hours at room temperature. Excess unbound peptide was removed prior to mounting by extensive washing with TBS. The coverslip was mounted using Prolong Gold mounting media (Life Technologies).
We investigated whether TMR-labelled 15M S.A. could be used to stain amyloid plaques ex vivo using brain tissue sections from AD model mice, in comparison with Thioflavin S (Thio S), which binds mature amyloid deposits and readily detects these plaques.

UniProt P05067, sequence (P05067 672-713 limits assumed): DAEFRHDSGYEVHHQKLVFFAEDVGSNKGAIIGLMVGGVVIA

Turning to `CSCC[C@@H](NC(=O)[C@@H](CC(C)C)NC(=O)[C@@H](CCCCN)NC(=O)[C@H](N)CCCNC(=N)N)C(=O)N[C@H](CCC(N)=O)C(=O)N1CCC[C@@H]1C(=O)NC(C(=O)N[C@H](CCCNC(=N)N)C(=O)N[C@H](CC(N)=O)C(=O)N[C@H](CCCNC(=N)N)C(=O)N[C@H](CCCNC(=N)N)C(=O)N[C@H](CC(N)=O)C(=O)N1CCC[C@@H]1C(=O)N[C@H](CC(N)=O)C(=O)NC(C(=O)O)C(C)O)C(C)O` (stereo partly drawn) [RI-ANA1, Arg-Lys-Leu-Met-Gln-Pro-Thr-Arg-Asn-Arg-Arg-Asn-Pro-Asn-Thr] (H-[dR][dK][dL][dM][dQ][dP][ξT][dR][dN][dR][dR][dN][dP][dN][ξT]-OH; N-terminus and C-terminus assumed), the intact peptide amount is 29.8 µg in data set [1] (time 0 min); 29.80 µg in data set [1] (time 0 min, listed as 15M S.A.); 27.8 µg in data set [1] (time 15 min); 27.80 µg in data set [1] (time 15 min, listed as 15M S.A.); 29.4 µg in data set [1] (time 30 min); 29.40 µg in data set [1] (time 30 min, listed as 15M S.A.). In addition, the intact peptide amount in data set [1] (time 300 min) was determined as 33.5 µg; in data set [1] (time 300 min, listed as 15M S.A.) it was 33.50 µg.
For the compound `CSCC[C@@H](NC(=O)[C@@H](CC(C)C)NC(=O)[C@@H](CCCCN)NC(=O)[C@H](N)CCCNC(=N)N)C(=O)N[C@H](CCC(N)=O)C(=O)N1CCC[C@@H]1C(=O)N[C@@H](C(=O)N[C@H](CCCNC(=N)N)C(=O)N[C@H](CC(N)=O)C(=O)O)[C@H](C)O` [RI-ANA5, Arg-Lys-Leu-Met-Gln-Pro-Thr-Arg-Asn], the intact peptide amount in data set [1] (time 0 min) worked out at 14 µg; in data set [1] (time 0 min, listed as 9M S.A.) it was 14.11 µg; in data set [1] (time 15 min), 12.35 µg; in data set [1] (time 30 min) it was 12.35 µg; in data set [1] (time 300 min) it was 12.5 µg; in data set [1] (time 300 min, listed as 9M S.A.) it was 12.51 µg.
Regarding “NRTPQMLKR [ANA5, Asn-Arg-Thr-Pro-Gln-Met-Leu-Lys-Arg]”, the intact peptide amount in data set [1] (time 0 min) was 12 µg; in data set [1] (time 0 min, listed as 9mer) it was 12.00 µg; in data set [1] (time 15 min), 0.47 µg; in data set [1] (time 30 min) it was 0 µg; in data set [1] (time 30 min, listed as 9 mer) it was “none”; in data set [1] (time 30 min, listed as 9mer) it was 0 µg. This compound displayed an intact peptide amount in data set [1] (time 300 min) of 0 µg.
The term Kd denotes the equilibrium constant for the complex coming apart. For the compound “RI-ANA1 (Arg-Lys-Leu-Met-Gln-Pro-Thr-Arg-Asn-Arg-Arg-Asn-Pro-Asn-Thr, all D-amino acids) (peptide)”, the Kd in data set [2] is 11 µM.
Consider “TNPNRRNRTPQMLKR [ANA1, Thr-Asn-Pro-Asn-Arg-Arg-Asn-Arg-Thr-Pro-Gln-Met-Leu-Lys-Arg]”, for which the intact peptide amount in data set [1] (time 0 min) is 25.8 µg; in data set [1] (time 0 min, listed as 15mer), 25.78 µg; in data set [1] (time 15 min) it was 5.6 µg; in data set [1] (time 15 min, listed as 15mer) it was 5.55 µg; in data set [1] (time 30 min), 0.03 µg; in data set [1] (time 30 min, listed as 15 mer), “trace amounts”. In addition, the intact peptide amount in data set [1] (time 30 min, listed as 15mer) was found to be 0.03 µg; in data set [1] (time 300 min) it was 0.02 µg.
For the compound Thioflavin S [Thio S], in the data set with amyloid plaques, the “staining of amyloid deposits” value is “extensive plaques”.
